Consider 59 compounds from PubChem BioAssay AID493040 (Abbott Labs, 2011).

In assay [1] the target is Rho-associated protein kinase 2 (Homo sapiens) (UniProt O75116). Kind of assay: PubChem AID 493040. As to conditions: kinase panel binding, pKi; ROCK2.
Assay [2] concerns the target Cyclin-dependent kinase 2 (Homo sapiens) (UniProt P24941). Kind of assay: PubChem AID 493040. The following applies: kinase panel binding, pKi; CDK2.

SMILES strings stand for the structures. Activity calls are given as the source filed them. How the calls were made is not given here. Some results are limits rather than exact numbers.

Rho-associated protein kinase 2 (Homo sapiens), sequence (O75116 whole entry, looked up): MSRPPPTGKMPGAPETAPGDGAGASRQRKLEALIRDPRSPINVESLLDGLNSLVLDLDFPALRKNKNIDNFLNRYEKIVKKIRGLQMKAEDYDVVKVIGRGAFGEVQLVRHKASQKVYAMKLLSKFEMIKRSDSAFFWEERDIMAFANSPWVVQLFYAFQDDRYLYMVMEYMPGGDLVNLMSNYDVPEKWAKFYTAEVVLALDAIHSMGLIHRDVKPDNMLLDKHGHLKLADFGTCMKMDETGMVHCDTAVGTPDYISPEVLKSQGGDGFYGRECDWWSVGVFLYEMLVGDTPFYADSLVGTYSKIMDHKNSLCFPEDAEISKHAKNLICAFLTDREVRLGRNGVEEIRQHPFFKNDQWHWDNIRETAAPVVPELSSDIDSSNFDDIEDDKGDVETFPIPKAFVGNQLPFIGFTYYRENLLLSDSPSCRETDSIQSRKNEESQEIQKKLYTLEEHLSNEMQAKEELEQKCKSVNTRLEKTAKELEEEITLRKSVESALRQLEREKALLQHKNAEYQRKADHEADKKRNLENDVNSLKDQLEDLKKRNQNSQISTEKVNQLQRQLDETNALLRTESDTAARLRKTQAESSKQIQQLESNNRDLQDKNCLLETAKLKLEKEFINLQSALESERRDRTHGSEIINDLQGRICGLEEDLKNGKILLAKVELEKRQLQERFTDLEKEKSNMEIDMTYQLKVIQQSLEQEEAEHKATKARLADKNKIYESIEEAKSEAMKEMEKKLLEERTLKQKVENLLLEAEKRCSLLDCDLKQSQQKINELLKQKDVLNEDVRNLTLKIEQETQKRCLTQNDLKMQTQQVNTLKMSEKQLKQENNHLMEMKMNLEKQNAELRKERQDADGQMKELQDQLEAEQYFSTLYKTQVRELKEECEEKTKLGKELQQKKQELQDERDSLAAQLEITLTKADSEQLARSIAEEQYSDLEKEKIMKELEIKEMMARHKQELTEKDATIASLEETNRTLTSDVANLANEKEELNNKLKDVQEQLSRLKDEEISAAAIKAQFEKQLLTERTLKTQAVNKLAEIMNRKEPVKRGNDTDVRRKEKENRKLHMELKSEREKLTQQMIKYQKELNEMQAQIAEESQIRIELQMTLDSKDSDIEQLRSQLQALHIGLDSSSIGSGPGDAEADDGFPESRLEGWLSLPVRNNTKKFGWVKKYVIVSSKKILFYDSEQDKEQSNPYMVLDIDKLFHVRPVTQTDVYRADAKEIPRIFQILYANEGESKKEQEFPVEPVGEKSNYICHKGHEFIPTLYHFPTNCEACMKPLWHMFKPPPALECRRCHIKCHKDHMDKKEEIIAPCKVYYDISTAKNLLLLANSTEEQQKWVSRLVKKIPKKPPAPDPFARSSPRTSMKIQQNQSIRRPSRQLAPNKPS

What is called Ki is the dissociation constant of the complex between target and ligand, obtained from inhibition or displacement. Turning to `Nc1n[nH]c2ccc(-c3nnn(Cc4ccccc4)c3C3CC3)cc12`, the inhibitory constant (Ki) is 20 nM in assay [1] and 79.4 nM in assay [2].
The like results for `c1ccc(Cn2cc(-c3ccc4[nH]nc(-c5cn(Cc6ccccc6)nn5)c4c3)nn2)cc1` were, in that order, 126 nM and 5.01 nM.
Consider `CN(C)c1cc(-c2ccncc2)cc2[nH]nc(N)c12`, for which the inhibition constant (Ki) is 79.4 nM in assay [1] and 631 nM in assay [2].
Regarding `CCCCOc1cc(-c2ccncc2)cc2[nH]nc(N)c12`, the Ki is 126 nM in assay [1] and 1000 nM in assay [2].
With `Cc1cc(=O)n2[nH]cc(C(=O)NCc3ccccc3)c2n1`, the Ki in assay [1] is 2510 nM.
In the case of `O=[N+]([O-])c1cccc(-c2nnc3ccc(N4CCCCC4)nn23)c1`, the Ki in assay [1] was > 7940 nM (inactive); in assay [2], 631 nM.
The like results for `c1ccc(Cn2cc(-c3ccc4[nH]nc(-c5ccccc5)c4c3)nn2)cc1` were, in that order, 63.1 nM and 100 nM.
As to `O=c1cc(-c2ccc(F)cc2)nc2c(-c3ccc(F)cc3)c[nH]n12`, the Ki in assay [1] was > 7940 nM (inactive).
Turning to `O=C(O)c1ccccc1Nc1ccnc(NCc2cccc(O)c2)n1`, the Ki in assay [1] was > 7940 nM (inactive).
As to `Fc1cccc(-c2c[nH]c3ncccc23)c1`, the values for the Ki in assay [1] and in assay [2] were 316 nM and 1260 nM, respectively.
Take `CC(C)(CO)CCCNc1cc(-c2c[nH]c3ncccc23)cc(Cl)n1`: the Ki is 10 nM in assay [1] and 100 nM in assay [2].
Turning to `CCCCNc1cc(-c2c[nH]c3ncccc23)ncn1`, the inhibition constant Ki in assay [1] is 20 nM; in assay [2], 200 nM.
In the case of `CC(C)(C)Oc1cc(-c2ccncc2)cc2[nH]nc(N)c12`, the results for the Ki in assay [1] and in assay [2] were 50.1 nM and 126 nM, respectively.
In the case of `CN(c1ccccc1-c1ccc2c(c1)Nc1ccccc1NC2=O)S(C)(=O)=O`, the Ki in assay [2] was 2000 nM.
Turning to `Fc1ccc2c(c1)-c1[nH]ncc1CS2`, the Ki in assay [2] is 20000 nM.
Still for that read-out and setting: for `CS(=O)(=O)Nc1ccccc1-c1ccc2c(c1)Nc1ccccc1NC2=O` the value was 6310 nM.
`NC(=O)c1ccc(-c2ccnc(N)n2)cc1N1CCCCC1`: the Ki in assay [1] is 1580 nM; in assay [2], 1260 nM.
For the compound `O=C1Nc2ccccc2Nc2cc(-c3ccncc3)ccc21`, the Ki in assay [1] is 316 nM; in assay [2], 1000 nM.
Take `O=C1CN=C(c2cccc(Cl)c2)c2c(sc3c2CCCC3)N1`: the inhibitory constant (Ki) in assay [2] is 7940 nM.
For `O=C1Nc2ccccc2Nc2cc(-c3ccncc3Cl)ccc21`, the results for the Ki in assay [1] and in assay [2] were 631 nM and 501 nM, respectively.
Consider `NC(=O)c1ccc(Nc2ncnc3[nH]cc(-c4ccccc4)c23)cc1`, for which the Ki in assay [1] was 251 nM; in assay [2] it was 501 nM.
Regarding `c1ccc(Cn2nnc(-c3ccc4[nH]ncc4c3)c2-c2ccccc2)cc1`, in assay [2], the Ki was 63.1 nM.
Take `COCC(C)Nc1cc(-c2c[nH]c3ncccc23)cc(Cl)n1` (configuration not stated): the values for the Ki in assay [1] and in assay [2] were 7.94 nM and 158 nM, respectively.
The corresponding values for `CC(C)(O)CNc1cc(-c2c[nH]c3ncccc23)cc(Cl)n1` are 15.8 nM and 251 nM.
The like results for `c1cnc2[nH]cc(-c3ccnc(NCC4CCCCC4)n3)c2c1` were, in that order, 6.31 nM and 3.98 nM.
In the case of `COCCNc1cc(-c2c[nH]c3ncccc23)cc(Cl)n1`, the Ki in assay [1] is 5.01 nM; in assay [2], 251 nM.
On to `CN(Cc1ccccc1)c1cc(-c2c[nH]c3ncccc23)cc(Cl)n1`, for which the Ki in assay [1] was 20 nM; in assay [2], 31.6 nM.
`COCCN(CCOC)c1cc(-c2c[nH]c3ncccc23)cc(Cl)n1`: the figures for the inhibitory constant (Ki) in assay [1] and in assay [2] were 39.8 nM and 2000 nM, respectively.
Turning to `NC(=O)c1ccc2c(ccn2-c2cccc(Cl)c2)c1`, the Ki in assay [1] is 2510 nM.
Turning to `O=c1cc(-c2ccncc2)nc(NCc2cc(F)cc(F)c2)[nH]1`, the Ki in assay [1] and in assay [2] was 794 nM each time.
For `NC(=O)c1ccc(-c2nc(-c3ccc4c(c3)OCO4)c(-c3ccccn3)[nH]2)cc1`, the Ki in assay [1] was > 3980 nM (inactive).
For `CCOC(=O)c1c[nH]n2c(=O)cc(-c3ccncc3)nc12`, in assay [1], the Ki was 2000 nM.
Consider `COc1ccccc1C(=O)Nc1n[nH]c2ccc(-c3cn(Cc4ccccc4)nn3)cc12`, for which the values for the Ki in assay [1] and in assay [2] were > 7940 nM (inactive) and 251 nM, respectively.
On to `Cc1sc2[nH]c(=O)n3nc(-c4ccncc4)nc3c2c1C`, for which, in assay [1], the Ki was 3980 nM.
Consider `Cc1[nH]nc2ccc(-c3cncc(OCCNS(C)(=O)=O)c3)cc12`, for which the Ki in assay [1] was 158 nM; in assay [2], 316 nM.
The like results for `Cc1[nH]nc2ccc(-c3cncc(OCCN(C)S(C)(=O)=O)c3)cc12` were, in that order, 100 nM and 501 nM.
`CCOC(=O)c1c(NC(=O)C2C(C)(C)C2(C)C)sc2cnccc12`: the Ki in assay [2] was 1000 nM.
`Nc1n[nH]c2ccc(-c3cc(Cc4ccccc4)no3)cc12`: the Ki in assay [1] was 25.1 nM; in assay [2] it was 200 nM.
Turning to `Cc1cccc(CNc2cc(-c3c[nH]c4ncccc34)cc(Cl)n2)c1C`, the Ki in assay [1] was 31.6 nM; in assay [2] it was 200 nM.
With `C=CCNc1cc(-c2c[nH]c3ncccc23)cc(Cl)n1`, the figures for the Ki in assay [1] and in assay [2] were 12.6 nM and 100 nM, respectively.
`O=C(Nc1ccccc1)Nc1nccs1`: in assay [2], the Ki was 20000 nM.
Regarding `NC1CCCCC1Nc1nccc(Nc2ccccc2C(=O)O)n1` (configuration not stated), the Ki in assay [1] was > 7940 nM (inactive).
Consider `O=C(NCc1ccccc1)c1c[nH]n2c(=O)cc(-c3ccncc3)nc12`, for which the Ki in assay [1] was > 7940 nM (inactive); in assay [2], 158 nM.
`FC(F)(F)c1ccccc1CNc1nccc(-c2c[nH]c3ncccc23)n1`: in assay [2], the Ki is 5.01 nM.
Consider `O=C1Nc2ccccc2Nc2cc(-c3ccncc3F)ccc21`, for which the Ki in assay [1] was 126 nM; in assay [2], 398 nM.
Turning to `O=c1cc(-c2cccc(F)c2)nc2c(-c3ccc(F)cc3)c[nH]n12`, the Ki in assay [1] is > 7940 nM (inactive).
`NC(=O)c1ccccc1Nc1nc(Nc2ccccc2)ncc1C(F)(F)F`: in assay [1], the Ki was 501 nM.
On to `CN(C)CCCOc1cc(-c2ccncc2)cc2[nH]nc(N)c12`, for which the values for the Ki in assay [1] and in assay [2] were 251 nM and 3160 nM, respectively.
On to `Cc1ccccc1-c1c(-c2ccc3n[nH]c(C)c3c2)nnn1Cc1ccccc1`, for which the Ki in assay [2] is 3.98 nM.
As to `NC(=O)c1ccc(-c2ccncc2)cc1NCc1cccc(F)c1`, the Ki in assay [1] was 5010 nM; in assay [2] it was 3160 nM.
The corresponding values for `CCNC(=O)c1[nH]nc(-c2cc(Cl)c(O)cc2O)c1-c1ccc(OC)cc1` are 2510 nM and 6310 nM.
For `CCCCNc1c(-c2ccc3[nH]ncc3c2)nc2ncccn12`, the Ki in assay [1] was 63.1 nM; in assay [2], 398 nM.
For `OCCCCNc1cc(-c2c[nH]c3ncccc23)cc(Cl)n1`, the results for the inhibitory constant (Ki) in assay [1] and in assay [2] were 15.8 nM and 126 nM, respectively.
Consider `CCCCNc1cc(-c2ccncc2)cc2[nH]nc(N)c12`, for which the Ki was 63.1 nM in assay [1] and 200 nM in assay [2].
On to `OCCNc1cc(-c2c[nH]c3ncccc23)cc(Cl)n1`, for which the Ki in assay [1] was 20 nM; in assay [2], 316 nM.
For `Cc1cccc(CNc2cc(-c3c[nH]c4ncccc34)ncn2)c1`, the Ki was 12.6 nM in assay [1] and 39.8 nM in assay [2].
In the case of `Cc1ccc(Nc2nccc(Nc3ccccc3C(=O)O)n2)cc1F`, the values for the Ki in assay [1] and in assay [2] were > 7940 nM (inactive) and 398 nM, respectively.
For `Cn1cc(-c2ccccc2)c2nc(-c3ccncc3)cc(=O)n21`, in assay [1], the Ki is 3160 nM.
Consider `CCCn1c(=O)c2[nH]c(-c3cnn(Cc4cccc(C(F)(F)F)c4)c3)nc2n(CC)c1=O`, for which the Ki in assay [2] is 5010 nM.
